Assay [1] relates to Eimeria tenella. Put plainly: Anticoccidial activity against Eimeria tenella in chickens assessed as reduction of oocysts at 25 ppm measured after 8 days by ExMAC assay relative to untreated control. In kind it is functional. Set-up: scale not given: the % may be the effect or the level left.
For assay [2], the system named is Eimeria maxima. Put plainly: Anticoccidial activity against Eimeria maxima in chickens assessed as reduction of oocysts at 25 ppm measured after 8 days by ExMAC assay relative to untreated control. The format is functional. Set-up: scale not given: the % may be the effect or the level left.
Assay [3] addresses cGMP-dependent protein kinase (Eimeria tenella, UniProt Q8MMZ8). Put plainly: Inhibition of Eimeria tenella cGMP-dependent protein kinase.
For assay [4], the system named is Eimeria acervulina. Put plainly: Anticoccidial activity against Eimeria acervulina in chickens assessed as reduction of oocysts at 25 ppm measured after 8 days by ExMAC assay relative to untreated control. In kind it is functional. Set-up: scale not given: the % may be the effect or the level left.
The subject of assay [5] is Eimeria mitis. Put plainly: Anticoccidial activity against Eimeria mitis in chickens assessed as reduction of oocysts at 25 ppm measured after 8 days by ExMAC assay relative to untreated control. The format is functional. Set-up: scale not given: the % may be the effect or the level left.
Assay [6] deals with Eimeria tenella. Put plainly: Anticoccidial activity against Eimeria tenella in chickens assessed as reduction of oocysts at 12.5 ppm measured after 8 days by ExMAC assay relative to untreated control. Also noted: scale not given: the % may be the effect or the level left. The format is functional.
For assay [7], the system named is Eimeria tenella. Put plainly: Anticoccidial activity against Eimeria tenella in chickens assessed as reduction of oocysts at 6.25 ppm measured after 8 days by ExMAC assay relative to untreated control. The format is functional. Set-up: scale not given: the % may be the effect or the level left.
Assay [8] has as its system Eimeria mitis. Put plainly: Anticoccidial activity against Eimeria mitis in chickens assessed as reduction of oocysts at 6.25 ppm measured after 8 days by ExMAC assay relative to untreated control. In kind it is functional. Also noted: scale not given: the % may be the effect or the level left.
Assay [9] deals with Eimeria mitis. Put plainly: Anticoccidial activity against Eimeria mitis in chickens assessed as reduction of oocysts at 12.5 ppm measured after 8 days by ExMAC assay relative to untreated control. The format is functional. Also noted: scale not given: the % may be the effect or the level left.
For assay [10], the system named is Eimeria maxima. Put plainly: Anticoccidial activity against Eimeria maxima in chickens assessed as reduction of oocysts at 12.5 ppm measured after 8 days by ExMAC assay relative to untreated control. The format is functional. Set-up: scale not given: the % may be the effect or the level left.
Assay [11] deals with Eimeria acervulina. Put plainly: Anticoccidial activity against Eimeria acervulina in chickens assessed as reduction of oocysts at 6.25 ppm measured after 8 days by ExMAC assay relative to untreated control. In kind it is functional. Also noted: scale not given: the % may be the effect or the level left.
Assay [12] has as its system Eimeria maxima. Put plainly: Anticoccidial activity against Eimeria maxima in chickens assessed as reduction of oocysts at 6.25 ppm measured after 8 days by ExMAC assay relative to untreated control. In kind it is functional. Also noted: scale not given: the % may be the effect or the level left.
The test system of assay [13] is Eimeria acervulina. Put plainly: Anticoccidial activity against Eimeria acervulina in chickens assessed as reduction of oocysts at 12.5 ppm measured after 8 days by ExMAC assay relative to untreated control. In kind it is functional. Also noted: scale not given: the % may be the effect or the level left.

The values that follow come from ChEMBL document CHEMBL1141668, “Synthesis and biological activity of imidazopyridine anticoccidial agents: Part II” (Eur J Med Chem, 2008).

The structures appear in SMILES notation.

Sequence of cGMP-dependent protein kinase (Q8MMZ8 whole entry): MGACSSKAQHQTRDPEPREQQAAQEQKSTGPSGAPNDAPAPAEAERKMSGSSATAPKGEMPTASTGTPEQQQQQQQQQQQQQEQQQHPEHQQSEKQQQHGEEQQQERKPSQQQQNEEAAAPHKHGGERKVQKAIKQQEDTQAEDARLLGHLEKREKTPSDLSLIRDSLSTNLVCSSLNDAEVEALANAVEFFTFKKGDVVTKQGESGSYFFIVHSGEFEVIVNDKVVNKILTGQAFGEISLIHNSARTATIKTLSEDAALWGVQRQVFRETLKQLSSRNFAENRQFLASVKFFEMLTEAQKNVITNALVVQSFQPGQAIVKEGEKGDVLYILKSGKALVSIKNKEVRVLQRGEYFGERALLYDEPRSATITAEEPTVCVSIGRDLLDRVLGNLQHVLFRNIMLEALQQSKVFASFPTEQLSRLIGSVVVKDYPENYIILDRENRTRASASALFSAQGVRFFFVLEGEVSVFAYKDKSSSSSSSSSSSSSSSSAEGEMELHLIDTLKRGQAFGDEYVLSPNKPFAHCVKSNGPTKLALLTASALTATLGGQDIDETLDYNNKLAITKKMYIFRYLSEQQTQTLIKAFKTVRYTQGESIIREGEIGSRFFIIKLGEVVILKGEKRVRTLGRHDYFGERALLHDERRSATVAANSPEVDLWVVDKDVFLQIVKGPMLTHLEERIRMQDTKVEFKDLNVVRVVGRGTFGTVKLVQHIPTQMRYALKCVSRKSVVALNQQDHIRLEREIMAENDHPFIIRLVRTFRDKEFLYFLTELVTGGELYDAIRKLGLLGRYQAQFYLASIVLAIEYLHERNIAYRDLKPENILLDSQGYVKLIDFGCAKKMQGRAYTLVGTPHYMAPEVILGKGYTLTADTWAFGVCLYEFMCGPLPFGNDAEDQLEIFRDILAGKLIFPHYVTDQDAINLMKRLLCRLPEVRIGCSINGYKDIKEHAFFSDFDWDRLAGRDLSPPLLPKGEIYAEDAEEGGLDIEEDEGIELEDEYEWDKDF

The term IC50 denotes the concentration that gives 50% inhibition. On to `Nc1nccc(-c2c(-c3ccc(F)cc3)nc3cc(C4CCNCC4)ccn23)n1`, for which the Activity is listed as less than 50% in the assay with Eimeria tenella [1], 100% in the assay with Eimeria maxima [2], less than 50% with Eimeria acervulina [4] and less than 50% in the assay with Eimeria mitis [5]. For the same compound, in assay [3], the IC50 was 0.046 nM.
`CN(C)Cc1ccn2c(-c3ccnc(N)n3)c(-c3ccc(F)cc3)nc2c1`: the Activity in the assay with Eimeria tenella [1] is 80%; in the assay with Eimeria tenella [6], 80%; with Eimeria tenella [7] it was 80%; in the assay on Eimeria mitis [8], less than 50%; with Eimeria mitis [9] it was 80%; in the assay on Eimeria maxima [2] it was 80%. Also, the Activity in the assay on Eimeria maxima [10] is listed as 80%; in the assay on Eimeria acervulina [11] it was 80%; in the assay on Eimeria maxima [12], less than 50%; with Eimeria acervulina [4], 80%; in the assay with Eimeria mitis [5], 80%; with Eimeria acervulina [13], 80%.
Take `CNC(=O)c1ccn2c(-c3ccnc(N)n3)c(-c3ccc(F)cc3)nc2c1`: the Activity was less than 50% with Eimeria tenella [1], 50% in the assay on Eimeria maxima [2], less than 50% in the assay on Eimeria acervulina [4] and less than 50% in the assay with Eimeria mitis [5]. Inhibition in [3] was half-maximal at 3.1 nM (IC50).
For the compound `CN1CCN(c2ccn3c(-c4ccnc(N)n4)c(-c4ccc(F)cc4)nc3c2)CC1`, the Activity is listed as 80% in the assay on Eimeria tenella [1]; 80% in the assay on Eimeria tenella [6]; less than 50% with Eimeria tenella [7]; 50% in the assay with Eimeria mitis [8]; 50% in the assay on Eimeria mitis [9]; 100% in the assay on Eimeria maxima [2]. Further, the Activity in the assay on Eimeria maxima [10] is recorded as less than 50%; in the assay with Eimeria acervulina [11], less than 50%; with Eimeria maxima [12], less than 50%; in the assay on Eimeria acervulina [4], less than 50%; in the assay on Eimeria mitis [5] it was 80%; with Eimeria acervulina [13] it was less than 50%. In assay [3], the IC50 was 0.23 nM.
For the compound `CN(CC#N)Cc1ccn2c(-c3ccnc(N)n3)c(-c3ccc(F)cc3)nc2c1`, the Activity in the assay on Eimeria tenella [1] was 80%; in the assay with Eimeria maxima [2], less than 50%; in the assay with Eimeria acervulina [4], 80%; with Eimeria mitis [5], less than 50%. Besides, it took 1.33 nM to reach half-maximal inhibition in [3] (IC50).
Consider `Nc1nccc(-c2c(-c3ccc(F)cc3)nc3cc(C4CCN(CCc5ccccc5)CC4)ccn23)n1`, for which the Activity in the assay on Eimeria tenella [6], in the assay on Eimeria mitis [9] and in the assay on Eimeria acervulina [13] was less than 50% in each case. In addition, inhibition in [3] was half-maximal at 0.07 nM (IC50).
With `CN(CCO)Cc1ccn2c(-c3ccnc(N)n3)c(-c3ccc(F)cc3)nc2c1`, the Activity in the assay on Eimeria tenella [6], in the assay on Eimeria mitis [9], in the assay on Eimeria maxima [10] and in the assay on Eimeria acervulina [13] was less than 50% in each case. The compound also came in with an IC50 in [3] of 0.4 nM.
With `CN(C)CCCc1ccn2c(-c3ccnc(N)n3)c(-c3ccc(F)cc3)nc2c1`, the Activity in the assay on Eimeria tenella [1] is 80%; in the assay with Eimeria tenella [6] it was 80%; in the assay on Eimeria tenella [7] it was less than 50%; in the assay with Eimeria mitis [8], less than 50%; in the assay with Eimeria mitis [9], less than 50%; in the assay with Eimeria maxima [2], 100%. Moreover, the Activity with Eimeria maxima [10] is recorded as less than 50%; with Eimeria acervulina [11], less than 50%; in the assay on Eimeria maxima [12], less than 50%; with Eimeria acervulina [4], 80%; in the assay on Eimeria mitis [5], 80%; in the assay on Eimeria acervulina [13] it was 80%. Further, the IC50 in assay [3] was 0.27 nM.
With `CCC(C)CN1CCC(c2ccn3c(-c4ccnc(N)n4)c(-c4ccc(F)cc4)nc3c2)CC1` (stereo not given), the Activity in the assay on Eimeria tenella [6] is recorded as 80%; in the assay on Eimeria mitis [9] it was less than 50%; in the assay with Eimeria acervulina [13] it was 80%. Besides, in assay [3], half-maximal inhibition (IC50) required 0.13 nM.
For `CC(C)(C)CCN1CCC(c2ccn3c(-c4ccnc(N)n4)c(-c4ccc(F)cc4)nc3c2)CC1`, the results for the Activity with Eimeria tenella [6], in the assay on Eimeria mitis [9] and with Eimeria acervulina [13] were 80%, less than 50% and less than 50%, respectively. Further, in [3], the IC50 is 0.11 nM.
Regarding `CC(C)CN1CCC(c2ccn3c(-c4ccnc(N)n4)c(-c4ccc(F)cc4)nc3c2)CC1`, the Activity is given as 80% with Eimeria tenella [1]; 100% in the assay on Eimeria tenella [6]; 50% in the assay with Eimeria tenella [7]; less than 50% in the assay with Eimeria mitis [8]; 80% in the assay on Eimeria mitis [9]; 80% in the assay with Eimeria maxima [2]. The Activity in the assay on Eimeria maxima [10] is reported as 100%; in the assay on Eimeria acervulina [11], 80%; in the assay on Eimeria maxima [12], less than 50%; with Eimeria acervulina [4] it was 100%; in the assay with Eimeria mitis [5], 80%; in the assay with Eimeria acervulina [13], 80%. In assay [3], the IC50 amounted to 0.12 nM.
For `CN1CCN(Cc2ccn3c(-c4ccnc(N)n4)c(-c4ccc(F)cc4)nc3c2)CC1`, the Activity in the assay on Eimeria tenella [1] is 80%; in the assay on Eimeria tenella [6], less than 50%; with Eimeria mitis [9], less than 50%; with Eimeria maxima [2], 80%; in the assay with Eimeria maxima [10] it was less than 50%; in the assay on Eimeria acervulina [4] it was less than 50%. The Activity in the assay with Eimeria mitis [5] is 80%; in the assay with Eimeria acervulina [13] it was less than 50%. Besides, the IC50 in assay [3] amounted to 2.2 nM.
Regarding `COCCN(C)Cc1ccn2c(-c3ccnc(N)n3)c(-c3ccc(F)cc3)nc2c1`, the Activity in the assay on Eimeria tenella [6], in the assay with Eimeria mitis [9], with Eimeria maxima [10] and with Eimeria acervulina [13] was less than 50% in each case. In assay [3], this compound came in with an IC50 of 0.26 nM.
With `C#CCN(C)Cc1ccn2c(-c3ccnc(N)n3)c(-c3ccc(F)cc3)nc2c1`, the Activity in the assay with Eimeria tenella [6], with Eimeria mitis [9], in the assay with Eimeria maxima [10] and in the assay on Eimeria acervulina [13] was less than 50% in each case. In [3], this compound had an IC50 of 0.65 nM.
As to `CC(C)(CN)c1ccn2c(-c3ccnc(N)n3)c(-c3ccc(F)cc3)nc2c1`, the Activity with Eimeria tenella [1] is listed as 50%; in the assay with Eimeria maxima [2], less than 50%; with Eimeria acervulina [4], less than 50%; in the assay on Eimeria mitis [5], 50%. The compound further showed an IC50 in [3] of 0.26 nM.
Consider `CCCCCCN1CCC(c2ccn3c(-c4ccnc(N)n4)c(-c4ccc(F)cc4)nc3c2)CC1`, for which the Activity in the assay on Eimeria tenella [6] is recorded as 50%; in the assay on Eimeria mitis [9], less than 50%; with Eimeria acervulina [13], less than 50%. The IC50 in assay [3] is 0.13 nM.
`Nc1nccc(-c2c(-c3ccc(F)cc3)nc3cc(C4CCN(Cc5ccccc5)CC4)ccn23)n1`: the Activity is 80% with Eimeria tenella [1]; 80% in the assay with Eimeria tenella [6]; less than 50% in the assay on Eimeria tenella [7]; less than 50% with Eimeria mitis [8]; less than 50% in the assay on Eimeria mitis [9]; 100% in the assay on Eimeria maxima [2]. Besides, the Activity in the assay with Eimeria maxima [10] is on record as 80%; with Eimeria acervulina [11], less than 50%; with Eimeria maxima [12], 80%; with Eimeria acervulina [4], less than 50%; in the assay on Eimeria mitis [5] it was less than 50%; in the assay on Eimeria acervulina [13] it was 80%. Moreover, the IC50 in assay [3] amounted to 0.11 nM.
`CC(C)(C)NCc1ccn2c(-c3ccnc(N)n3)c(-c3ccc(F)cc3)nc2c1`: in [3], the IC50 was 0.35 nM.
In the case of `CN(C)c1ccn2c(-c3ccnc(N)n3)c(-c3ccc(F)cc3)nc2c1`, the Activity in the assay with Eimeria tenella [1] is 80%; in the assay on Eimeria tenella [6] it was 50%; in the assay on Eimeria tenella [7] it was less than 50%; in the assay with Eimeria mitis [8] it was less than 50%; in the assay with Eimeria mitis [9], less than 50%; in the assay on Eimeria maxima [2], 80%. Also, the Activity is listed as 80% in the assay with Eimeria maxima [10]; less than 50% in the assay on Eimeria acervulina [11]; less than 50% in the assay on Eimeria maxima [12]; 80% in the assay on Eimeria acervulina [4]; less than 50% in the assay with Eimeria mitis [5]; less than 50% with Eimeria acervulina [13]. In addition, the IC50 in assay [3] was 3 nM.
`Nc1nccc(-c2c(-c3ccc(F)cc3)nc3cc(C4CCN(CC5CC5)CC4)ccn23)n1`: the Activity came to 100% in the assay on Eimeria tenella [1]; 100% in the assay on Eimeria tenella [6]; 80% with Eimeria tenella [7]; 80% with Eimeria mitis [8]; 80% in the assay with Eimeria mitis [9]; 80% with Eimeria maxima [2]. The Activity came to 80% in the assay with Eimeria maxima [10]; 80% in the assay on Eimeria acervulina [11]; 80% with Eimeria maxima [12]; 100% in the assay on Eimeria acervulina [4]; 80% in the assay with Eimeria mitis [5]; 80% with Eimeria acervulina [13]. The IC50 in assay [3] was determined as 0.095 nM.
`CCC(CN(C)C)c1ccn2c(-c3ccnc(N)n3)c(-c3ccc(F)cc3)nc2c1` (stereo not given): the Activity is given as 100% in the assay with Eimeria tenella [1], 100% in the assay with Eimeria maxima [2], less than 50% with Eimeria acervulina [4] and less than 50% in the assay on Eimeria mitis [5]. Besides, in assay [3], the IC50 turned out to be 0.4 nM.
Regarding `CN(C)C(=N)c1ccn2c(-c3ccnc(N)n3)c(-c3ccc(F)cc3)nc2c1`, the Activity with Eimeria tenella [1] is on record as less than 50%; with Eimeria maxima [2], less than 50%; with Eimeria acervulina [4] it was 50%; with Eimeria mitis [5], less than 50%. The compound also showed an IC50 in assay [3] of 2.5 nM.
Take `CCCC(C)CN1CCC(c2ccn3c(-c4ccnc(N)n4)c(-c4ccc(F)cc4)nc3c2)CC1` (stereo not given): the Activity in the assay with Eimeria tenella [6] was 80%; in the assay on Eimeria mitis [9] it was less than 50%; in the assay with Eimeria acervulina [13], less than 50%. Moreover, inhibition in [3] was half-maximal at 0.12 nM (IC50).
